Source: patent US4079177A, “Clavulanic acid carbamates” (Beecham Group Limited, priority 1975, dated 1978)

Tests used:
Escherichia coli JT4 = experiment: Minimum inhibitory concentration (mic), synergistical activity against β-lactamase producing organisms; format: cell-based; settings: substance alone
Procedure: (§1) The minimum inhibitory concentrations (mic) of ampicillin N-methylcarbamoylclavulanic acid, and mixtures of ampicillin and N-methylcarbamoylclavulanic acid were determined against 4 β-lactamase producing organisms.
(§2) MIC's (in μg/ml) of Ampicillin and N-methylcarbamoylclavulanic acid
(§3) combinations thereof against 4 β-lactamase producing organisms.

Klebsiella aerogenes E70 = experiment: as above; format: cell-based; settings: substance alone
Procedure: as §1, §2, §3

Proteus mirabilis C889 = experiment: as above; format: cell-based; settings: substance alone
Procedure: as §1, §2, §3

[1] = system: Staphylococcus aureus Russell; experiment: as above; format: cell-based; settings: substance alone
Procedure: as §1, §2, §3

[2] = Stability of n.m.r. solution (D2O); format: physicochemical
From the text: n.m.r. (D2 O) 2.88 (3H,s, NCH3) 3.20 (1H,d, J 18Hz, 6β-CH) 3.70 (1H,dd, J 18Hz J' 3Hz 6α-CH) 5.7δ (1H,d, J 3Hz, 5-CH); the other protons were obscured by the water peak.

Row | SMILES | MIC (Escherichia coli JT4) | MIC (Klebsiella aerogenes E70) | MIC (Proteus mirabilis C889) | MIC [1] | degradation of the n.m.r. solution [2]
1 | CC1(C)S[C@@H]2[C@H](NC(=O)[C@H](N)c3ccccc3)C(=O)N2[C@H]1C(=O)O [Ampicillin, ampicillin, reference compound] | > 5000 µg/mL | 250 µg/mL | > 500 µg/mL | 500 µg/mL | 
2 | CNC(=O)OC/C=C1\O[C@@H]2CC(=O)N2[C@H]1C(=O)O [N-methylcarbamoylclavulanic acid] | > 500 µg/mL | 500 µg/mL | > 500 µg/mL | 250 µg/mL | 
3 | CNC(=O)OC/C=C1\O[C@@H]2CC(=O)N2[C@H]1C(=O)O [Sodium N-methylcarbamoylclavulanate] |  |  |  |  | signs of rapid degradation
